Results taken from EP1027361B1, “6,11-BRIDGED ERYTHROMYCIN DERIVATIVES” (Abbott Laboratories, priority 1997, dated 1999).

Legend:
Assay in all cases: in vitro antibacterial activity, agar dilution MIC
Type in all cases: cell-based
[1] = system: Staphylococcus aureus CMX 642A; conditions: organism code DD, BHI agar, 35-37 °C, 20 to 24 hours
Method: (§1) Erythromycin A was used for this purpose.
(§2) After incubation, each plate was visually inspected.

[2] = system: Streptococcus Pheumoniae GYR 1171; conditions: organism code YY, BHI agar, 35-37 °C, 20 to 24 hours
Method: as §1, §2

[3] = system: Nocardia Asteroides ATCC9970; conditions: organism code VV, BHI agar, 35-37 °C, 20 to 24 hours
Method: as §1, §2

Escherichia coli SS = conditions: organism code RR, BHI agar, 35-37 °C, 20 to 24 hours
Method: as §1, §2

[4] = system: Enterococcus faecium ATCC 8043; conditions: organism code II, BHI agar, 35-37 °C, 20 to 24 hours
Method: as §1, §2

[5] = system: Streptococcus Pheumoniae 5649; conditions: organism code ZZA, BHI agar, 35-37 °C, 20 to 24 hours
Method: as §1, §2

[6] = system: Micrococcus luteus ATCC 9341; conditions: organism code OO, BHI agar, 35-37 °C, 20 to 24 hours
Method: as §1, §2

[7] = system: Staphylococcus epidermidis 3519; conditions: organism code HH, BHI agar, 35-37 °C, 20 to 24 hours
Method: as §1, §2

[8] = system: Staphylococcus aureus CMX 553; conditions: organism code FF, BHI agar, 35-37 °C, 20 to 24 hours
Method: as §1, §2

[9] = system: Haemophilis Influenzae DILL AMP R; conditions: organism code WW, BHI agar, 35-37 °C, 20 to 24 hours
Method: as §1, §2

[10] = system: Micrococcus luteus ATCC 4698; conditions: organism code PP, BHI agar, 35-37 °C, 20 to 24 hours
Method: as §1, §2

Escherichia coli JUHL = conditions: organism code QQ, BHI agar, 35-37 °C, 20 to 24 hours
Method: as §1, §2

[11] = system: Staphylococcus aureus NCTC10649M; conditions: organism code EE, BHI agar, 35-37 °C, 20 to 24 hours
Method: as §1, §2

[12] = system: Streptococcus pyogenes PIU 2548; conditions: organism code NN, BHI agar, 35-37 °C, 20 to 24 hours
Method: (§3) Representative compounds of the present invention were assayed in vitro for antibacterial activity as follows: Twelve petri dishes containing successive aqueous dilutions of the test compound mixed with 10 mL of sterilized Brain Heart Infusion (BHI) agar (Difco 0418-01-5) were prepared. Each plate was inoculated with 1:100 (or 1:10 for slow-growing strains, such as Micrococcus and Streptococcus) dilutions of up to 32 different microorganisms, using a Steers replicator block. […] In addition, a control plate, using BHI agar containing no test compound, was prepared and incubated at the beginning and end of each test
(§4) An additional plate containing a compound having known susceptibility patterns for the organisms being tested and belonging to the same antibiotic class as the test compound was also prepared and incubated as a further control, as well as to provide test-to-test comparability.
(§5) After incubation, each plate was visually inspected. The minimum inhibitory concentration (MIC) was defined as the lowest concentration of drug yielding no growth, a slight haze, or sparsely isolated colonies on the inoculum spot as compared to the growth control.

Candida albicans CCH 442 = conditions: organism code TT, BHI agar, 35-37 °C, 20 to 24 hours
Method: as §3, §4, §5

[13] = system: Staphylococcus aureus A-5278; conditions: organism code CC, BHI agar, 35-37 °C, 20 to 24 hours
Method: as §3, §4, §5

[14] = system: Streptococcus Pheumoniae 5979; conditions: organism code ZZ, BHI agar, 35-37 °C, 20 to 24 hours
Method: as §3, §4, §5

[15] = system: Staphylococcus aureus 1775; conditions: organism code GG, BHI agar, 35-37 °C, 20 to 24 hours
Method: as §3, §4, §5

[16] = system: Streptococcus pyogenes 930; conditions: organism code MM, BHI agar, 35-37 °C, 20 to 24 hours
Method: as §3, §4, §5

Escherichia coli DC-2 = conditions: organism code SS, BHI agar, 35-37 °C, 20 to 24 hours
Method: as §3, §4, §5

[17] = system: Staphylococcus aureus A5177; design: unit not given here; conditions: organism code BB, BHI agar, 35-37 °C, 20 to 24 hours
Method: as §3, §4, §5

[18] = system: Mycobacterium smegmatis ATCC 114; design: unit not given here; conditions: organism code UU, BHI agar, 35-37 °C, 20 to 24 hours
Method: as §3, §4, §5

[19] = system: Streptococcus pyogenes EES61; design: unit not given here; conditions: organism code LL, BHI agar, 35-37 °C, 20 to 24 hours
Method: as §1, §2

[20] = system: Streptococcus Pheumoniae ATCC6303; design: unit not given here; conditions: organism code XX, BHI agar, 35-37 °C, 20 to 24 hours
Method: as §1, §2

[21] = system: Streptococcus bovis A-5169; design: unit not given here; conditions: organism code JJ, BHI agar, 35-37 °C, 20 to 24 hours
Method: as §1, §2

[22] = system: Staphylococcus aureus ATCC 6538P; design: unit not given here; conditions: organism code AA, BHI agar, 35-37 °C, 20 to 24 hours
Method: as §1, §2

[23] = system: Streptococcus agalactiae CMX 508; design: unit not given here; conditions: organism code KK, BHI agar, 35-37 °C, 20 to 24 hours
Method: as §1, §2

Structure (SMILES) | minimum inhibitory concentration (MIC) [1] | minimum inhibitory concentration (MIC) [2] | minimum inhibitory concentration (MIC) [3] | minimum inhibitory concentration (MIC) (Escherichia coli SS) | minimum inhibitory concentration (MIC) [4] | minimum inhibitory concentration (MIC) [5] | minimum inhibitory concentration (MIC) [6] | minimum inhibitory concentration (MIC) [7] | minimum inhibitory concentration (MIC) [8] | minimum inhibitory concentration (MIC) [9] | minimum inhibitory concentration (MIC) [10] | minimum inhibitory concentration (MIC) (Escherichia coli JUHL) | minimum inhibitory concentration (MIC) [11] | minimum inhibitory concentration (MIC) [12] | minimum inhibitory concentration (MIC) (Candida albicans CCH 442) | minimum inhibitory concentration (MIC) [13] | minimum inhibitory concentration (MIC) [14] | minimum inhibitory concentration (MIC) [15] | minimum inhibitory concentration (MIC) [16] | minimum inhibitory concentration (MIC) (Escherichia coli DC-2) | other results
CC[C@H]1OC(=O)[C@H](C)[C@@H](O[C@H]2C[C@@](C)(OC)[C@@H](O)[C@H](C)O2)[C@H](C)[C@@H](O[C@@H]2O[C@H](C)C[C@H](N(C)C)[C@H]2O)[C@@]2(C)C[C@@H](C)C(=O)[C@H](C)[C@H]3N(CCC=CCO2)C(=O)O[C@]13C [Example 17, Compound of Formula (I), R^p is H, m is 2, A is absent, B is absent, D is absen, E is-(CH2)r-CH=CH-, r is 0, n is 1] | 0.2 | 0.015 | 0.02 | 0.78 | 0.05 | 8 | 0.02 | 0.2 | 0.1 | 8 | 0.1 | >100 | 0.2 | 25 | >100 | >100 | >128 | >100 | >100 | >100 | minimum inhibitory concentration (MIC) [17]: 6.2; minimum inhibitory concentration (MIC) [18]: 0.2; minimum inhibitory concentration (MIC) [19]: 0.02; minimum inhibitory concentration (MIC) [20]: 0.015; minimum inhibitory concentration (MIC) [21]: 0.01; minimum inhibitory concentration (MIC) [22]: 0.1; minimum inhibitory concentration (MIC) [23]: 0.01
CC[C@H]1OC(=O)[C@H](C)[C@@H](O[C@H]2C[C@@](C)(OC)[C@@H](O)[C@H](C)O2)[C@H](C)[C@@H](O[C@@H]2O[C@H](C)C[C@H](N(C)C)[C@H]2O)[C@@]2(C)C[C@@H](C)C(=O)[C@H](C)[C@H]3N(CCCCO2)C(=O)O[C@]13C [Example 15, Compound of Formula (I), R^p is H, m is 3, A is absent, B is absent, D is absent, E is absent, n is 1] | 0.39 | 0.03 | 0.1 | 3.1 | 0.1 | 16 | 0.05 | 0.39 | 0.39 | 32 | 0.39 | >100 | 0.78 | 6.2 | >100 | >100 | >128 | >100 | >100 | >100 | minimum inhibitory concentration (MIC) [17]: 3.1; minimum inhibitory concentration (MIC) [18]: 1.56; minimum inhibitory concentration (MIC) [19]: 0.1; minimum inhibitory concentration (MIC) [20]: 0.03; minimum inhibitory concentration (MIC) [21]: 0.05; minimum inhibitory concentration (MIC) [22]: 0.39; minimum inhibitory concentration (MIC) [23]: 0.05
CC[C@H]1OC(=O)[C@H](C)C(=O)[C@H](C)[C@@H](O[C@@H]2O[C@H](C)C[C@H](N(C)C)[C@H]2O)[C@@]2(C)C[C@@H](C)C(=O)[C@H](C)[C@H]3N(CCOCc4ccccc4C=CCO2)C(=O)O[C@]13C [Example 12, Compound of Formula (II), R^p is H, m is 2, A is -O-, B is-(CH2)q-, q is 1, D is 1,2-phenylene, E is-(CH2)r-CH=CH-, r is 0, n is 1] | 0.78 | 0.125 | 0.78 | 1.56 | 0.1 | 1 | 0.2 | 0.78 | 0.78 | 16 | 0.39 | >100 | 0.78 | 0.39 | >100 | >100 | 128 | >100 | 50 | >100 | minimum inhibitory concentration (MIC) [17]: 0.78; minimum inhibitory concentration (MIC) [18]: 0.78; minimum inhibitory concentration (MIC) [19]: 0.05; minimum inhibitory concentration (MIC) [20]: 0.25; minimum inhibitory concentration (MIC) [21]: 0.05; minimum inhibitory concentration (MIC) [22]: 0.78; minimum inhibitory concentration (MIC) [23]: 0.1
